According to patent US7511144B2, “Reverse hydroxamic acid derivatives” (Kaken Pharmaceutical Co., Ltd., priority 2001, dated 2009):
Like-named read-outs stand apart in the source and are kept apart here.

Columns and labels:
Type in all cases: biochemical
[1] = target: T1, TACE (Homo sapiens, UniProt P78536); assay: TACE inhibition experiment (in vitro)
T1 construct: made in house; host or cells: mammalian cells or insect cells

[2] = target: T2, Human MMP14 (Homo sapiens, UniProt P50281); assay: MMP14 inhibition experiment; settings: concentration required for 50% inhibition of enzyme activity; read-out: IC50 value MMP-14
T2 construct: purchased Biogenesis or Calbiochem 5980-1461 or 475935
Method: (§1) MMP inhibition experiment may be carried out using a fluorescent synthetic substrate according to, for example, the methods of Bickett et al. (D. Mark Bickett et al., Anal. Biochem., 1993, 212, 58-64) and Nagase et al. (H. Nagase et al., J. Biol. Chem., 1994, 269, 20952-20957). The methods of inhibition experiments carried out for various MMPs are described below.
Human MMP14 (Biogenesis #5980-1461 or Calbiochem #475935) in amount of 90 μL (4 ng) prepared in the assay buffer A was added to 90 μL of 20 μM fluorescent substrate (Dnp-Pro-Cha-Gly-Cys(Me)-His-Ala-Lys(Nma)-NH2) prepared in the assay buffer B, followed by reaction for 5 hours at 37° C.

[3] = target: T3, Human MMP1 (Homo sapiens, UniProt P03956); assay: MMP1 inhibition experiment; settings: read-out: IC50 value MMP-1
T3 construct: purchased Calbiochem 444208
T3 sequence (P03956 100-469): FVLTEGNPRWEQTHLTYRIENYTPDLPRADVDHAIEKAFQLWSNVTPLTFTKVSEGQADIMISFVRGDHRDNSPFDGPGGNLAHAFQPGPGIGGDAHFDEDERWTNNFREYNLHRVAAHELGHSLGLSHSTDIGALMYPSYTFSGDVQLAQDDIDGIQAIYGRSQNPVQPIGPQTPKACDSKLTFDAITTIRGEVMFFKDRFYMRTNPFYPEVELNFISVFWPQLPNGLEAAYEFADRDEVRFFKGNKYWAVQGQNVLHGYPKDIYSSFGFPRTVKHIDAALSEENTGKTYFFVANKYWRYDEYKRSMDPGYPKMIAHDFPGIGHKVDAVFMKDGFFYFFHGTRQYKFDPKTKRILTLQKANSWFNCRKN
Method: This enzyme solution in amount of 10 μL was diluted to 90 μL with the assay buffer A, which was added to 90 μL of 20 μM fluorescent substrate (Dnp-Pro-Cha(β-cyclohexylalanyl)-Gly-Cys(Me)-His-Ala-Lys(Nma)-NH2) prepared in the assay buffer B, followed by reaction for 5 hours at 37° C.

[4] = target: T4, Human MMP9 (Homo sapiens, UniProt P14780); assay: MMP9 inhibition experiment; settings: read-out: IC50 value MMP-9
T4 construct: purchased Calbiochem 444231
T4 sequence (P14780 107-707 limits assumed): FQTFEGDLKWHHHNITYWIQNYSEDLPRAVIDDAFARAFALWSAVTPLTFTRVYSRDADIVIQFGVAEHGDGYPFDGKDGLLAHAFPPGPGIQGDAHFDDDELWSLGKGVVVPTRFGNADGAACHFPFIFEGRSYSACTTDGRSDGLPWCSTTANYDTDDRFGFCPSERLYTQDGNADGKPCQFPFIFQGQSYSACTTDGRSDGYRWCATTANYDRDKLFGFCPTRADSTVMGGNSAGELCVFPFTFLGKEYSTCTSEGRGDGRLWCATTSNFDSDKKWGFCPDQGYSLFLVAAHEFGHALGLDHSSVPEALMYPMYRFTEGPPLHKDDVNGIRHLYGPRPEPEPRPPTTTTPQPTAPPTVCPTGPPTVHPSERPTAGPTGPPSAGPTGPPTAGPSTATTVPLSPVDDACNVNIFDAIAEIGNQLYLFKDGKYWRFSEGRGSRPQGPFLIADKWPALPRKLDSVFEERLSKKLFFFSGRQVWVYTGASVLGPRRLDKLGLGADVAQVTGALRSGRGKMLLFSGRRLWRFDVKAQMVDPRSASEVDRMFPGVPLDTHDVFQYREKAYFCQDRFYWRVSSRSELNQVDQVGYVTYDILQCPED
Method: This enzyme solution in amount of 1 μL was diluted to 90 μL with the assay buffer A, which was added to 90 μL of 20 μM fluorescent substrate (Dnp-Pro-Cha-Gly-Cys(Me)-His-Ala-Lys(Nma)-NH2) prepared in the assay buffer B, followed by reaction for 4 hours at 37° C.

[5] = target: T5, Human MMP13 (Homo sapiens, UniProt P45452); assay: MMP13 inhibition experiment; settings: concentration required for 50% inhibition of enzyme activity; read-out: IC50 value MMP-13
T5 construct: purchased Chemicon CC068
Method: Human MMP13 (Chemicon #CC068) in amount of 90 μL (200 ng) was activated by mixing with 10 μL of 10 mM APMA, followed by reaction for 1 hour at 37° C. This enzyme solution in amount of 0.6 μL was diluted to 90 μL with the assay buffer A, which was added to 90 μL of 20 μM fluorescent substrate (Dnp-Pro-Cha-Gly-Cys(Me)-His-Ala-Lys(Nma)-NH2) prepared in the assay buffer B, followed by reaction for 4 hours at 37° C.

[6] = target: T6, Human MMP17 (Homo sapiens, UniProt Q9ULZ9); assay: MMP17 inhibition test; settings: concentration required for 50% inhibition of enzyme activity; read-out: IC50 value MMP-17
T6 construct: purchased Calbiochem 475940
T6 sequence (Q9ULZ9 126-300 limits assumed): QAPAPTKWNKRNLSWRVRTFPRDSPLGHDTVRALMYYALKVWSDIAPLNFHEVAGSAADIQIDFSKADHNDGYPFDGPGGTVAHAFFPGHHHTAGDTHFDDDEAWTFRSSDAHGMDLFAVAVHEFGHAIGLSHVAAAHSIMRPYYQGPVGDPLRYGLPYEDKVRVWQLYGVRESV

[7] = target: T7, Human MMP3 (Homo sapiens, UniProt P08254); assay: MMP3 inhibition experiment; settings: concentration required for 50% inhibition of enzyme activity; read-out: IC50 value MMP-3
T7 construct: purchased Calbiochem 444217
T7 sequence (P08254 100-272 limits assumed): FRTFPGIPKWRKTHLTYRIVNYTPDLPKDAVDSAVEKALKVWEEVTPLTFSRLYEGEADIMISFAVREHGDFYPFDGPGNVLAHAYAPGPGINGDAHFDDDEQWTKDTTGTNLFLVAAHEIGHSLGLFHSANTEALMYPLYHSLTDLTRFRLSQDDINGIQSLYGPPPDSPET
Method: as §1
Human MMP3 (Calbiochem #444217) in 90 μL (5 ng) prepared in the assay buffer A was added to 90 μL of 20 μM fluorescent substrate NFF-3(MOCAc-Arg-Pro-Lys-Pro-Val-Glu-Nva-Trp-Arg-Lys(Dnp)-NH2, Peptide Institute, Inc., #3168-v) prepared in the assay buffer B, followed by reaction for 5 hours at 37° C.

[8] = concentration required for 50% inhibition of enzyme activity

T1 sequence (P78536 215-824): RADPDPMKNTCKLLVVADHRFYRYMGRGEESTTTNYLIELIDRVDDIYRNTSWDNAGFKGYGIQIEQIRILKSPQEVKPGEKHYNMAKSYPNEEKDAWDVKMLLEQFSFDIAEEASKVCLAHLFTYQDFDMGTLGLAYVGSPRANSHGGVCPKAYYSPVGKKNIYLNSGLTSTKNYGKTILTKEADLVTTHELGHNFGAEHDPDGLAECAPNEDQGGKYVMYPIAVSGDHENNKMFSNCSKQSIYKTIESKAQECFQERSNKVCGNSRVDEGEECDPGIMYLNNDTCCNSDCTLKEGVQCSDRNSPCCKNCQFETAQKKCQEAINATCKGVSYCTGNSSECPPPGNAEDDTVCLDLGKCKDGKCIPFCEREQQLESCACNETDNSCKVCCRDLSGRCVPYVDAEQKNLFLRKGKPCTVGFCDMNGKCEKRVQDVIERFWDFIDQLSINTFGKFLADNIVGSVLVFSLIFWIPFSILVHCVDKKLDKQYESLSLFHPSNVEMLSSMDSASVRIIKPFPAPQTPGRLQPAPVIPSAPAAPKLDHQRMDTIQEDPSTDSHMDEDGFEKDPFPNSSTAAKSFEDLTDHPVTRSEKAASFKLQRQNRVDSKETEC

COCc1cc(COc2ccc(S(=O)(=O)CC(CC3CCC4(CC3)OCCO4)N(O)C=O)cc2)cc(C)n1 (centres unmarked) [Example I-121]
IC50 [1]: 360 nM

Cc1ccc2nc(C)cc(COc3ccc(S(=O)(=O)CC(c4ccc(C)nc4)N(O)C=O)cc3)c2c1 (centres unmarked) [Example I-147]
IC50 [1]: 4.3 nM

C=C1CCC(C(CS(=O)(=O)c2ccc(OCc3cc(C)cc(OC)c3)cc2)N(O)C=O)CC1 (centres unmarked) [Example I-7, N-Hydroxy-N-[2-{4-(3-methoxy-5-methylbenzyloxy)benzenesulfonyl)-1-(4-methylenecyclohexyl)ethyl]formamide]
IC50 [2]: 40000 nM | IC50 [1]: 200 nM | IC50 [3]: 43000 nM | IC50 [4]: 30000 nM | IC50 [5]: 10000 nM | IC50 [6]: 6000 nM | IC50 [7]: 20000 nM

Cc1cc(COc2ccc(S(=O)(=O)CC(CCC3(C)CCOCC3)N(O)C=O)cc2)c2ccccc2n1 (centres unmarked) [Example I-144]
IC50 [1]: 7.2 nM

Cc1cc(COc2ccc(S(=O)(=O)CC(CC3=CCN(C(=O)OC(C)(C)C)CC3(C)C)N(O)C=O)cc2)c2ccccc2n1 (centres unmarked) [Example I-152]
IC50 [1]: 13 nM

Cc1cc(COc2ccc(S(=O)(=O)CC(C3CCC(=NO)CC3)N(O)C=O)cc2)c2ccccc2n1 (centres unmarked) [Example I-14]
IC50 [2]: 23000 nM | IC50 [3]: 30000 nM

Cc1ccc2nc(C)cc(COc3ccc(S(=O)(=O)CC([C@@H]4CSC(=O)N4C)N(O)C=O)cc3)c2c1 (some centres unmarked) [Example I-148]
IC50 [1]: 13 nM

O=CN(O)C(CC1CCC(=NO)CC1)CS(=O)(=O)c1ccc(OCc2ccc3ccccc3n2)cc1 (centres unmarked) [Example I-88]
IC50 [1]: 760 nM

Cc1cc(COc2ccc(S(=O)(=O)CC(CCc3ccccc3C)N(O)C=O)cc2)c2ccccc2n1 (centres unmarked) [Example I-40]
IC50 [1]: 270 nM

Cc1cc(COc2ccc(S(=O)(=O)CC(C=C3CCCN(S(C)(=O)=O)CC3)N(O)C=O)cc2)c2ccccc2n1 (centres unmarked) [Example I-138]
IC50 [1]: 2.8 nM

CCC(CC)C(=O)N1CCC(CC(CS(=O)(=O)c2ccc(OCc3cc(C)nc4ccc(C)cc34)cc2)N(O)C=O)CC1 (centres unmarked) [Example I-175]
IC50 [1]: 11 nM

O=CN(O)C(CC1CCC(=O)CC1)CS(=O)(=O)c1ccc(OCc2ccc3ccccc3n2)cc1 (centres unmarked) [Example I-89]
IC50 [1]: 820 nM

CCC(CC)C(=O)N1CC/C(=C\C(CS(=O)(=O)c2ccc(OCc3cc(C)nc4ccccc34)cc2)N(O)C=O)C(C)(C)C1 (centres unmarked) [Example I-141]
IC50 [1]: 3.3 nM

Cc1cc(COc2ccc(S(=O)(=O)CC(N(O)C=O)C3(C)CCN(C(=O)OC(C)(C)C)CC3)cc2)c2ccccc2n1 (centres unmarked) [Example I-161]
IC50 [1]: 44 nM

CCC(CC)CN1CCC(=CC(CS(=O)(=O)c2ccc(OCc3cc(C)nc4ccc(C)cc34)cc2)N(O)C=O)CC1 (centres unmarked) [Example I-174]
IC50 [1]: 15 nM

C=C1CCC(C(CS(=O)(=O)c2ccc(OCc3cc(C)nc(C)c3)cc2)N(O)C=O)CC1 (centres unmarked) [Example I-4, N-[2-{4-(2,6-dimethylpyridin-4-ylmethoxy)benzenesulfonyl}-1-(4-methylenecyclohexyl)ethyl]-N-hydroxyformamide]
IC50 [2]: 43000 nM | IC50 [1]: 60 nM | IC50 [3]: > 100000 nM | IC50 [4]: 40000 nM | IC50 [5]: 2500 nM | IC50 [6]: 2000 nM | IC50 [7]: 5000 nM

COc1cc(C)cc(COc2ccc(S(=O)(=O)CC(C3CCC4(CC3)OCCO4)N(O)C=O)cc2)c1 (centres unmarked) [Example I-8, N-[1-(1,4-Dioxaspiro[4.5]dec-8-yl)-2-{4-(3-methoxy-5-methylbenzyloxy)benzenesulfonyl}ethyl]-N-hydroxyformamide]
IC50 [2]: 40000 nM | IC50 [1]: 80 nM | IC50 [3]: > 100000 nM | IC50 [4]: 35000 nM | IC50 [5]: 2200 nM | IC50 [6]: 2000 nM | IC50 [7]: 2000 nM

C[C@@H]1O[C@@H](CO)CN(S(=O)(=O)c2ccc(OCc3ccc(F)cc3)cc2)[C@H]1C(=O)NO [compound 2, reference compound]
IC50 [2]: 100 nM | IC50 [1, 8]: 5 nM | IC50 [3, 8]: 3000 nM | IC50 [4, 8]: 20 nM | IC50 [5]: 4 nM | IC50 [6]: 21 nM | IC50 [7]: 40 nM

CCN1CCC(C(CS(=O)(=O)c2ccc(OCc3cc(C)nc4ccccc34)cc2)N(O)C=O)CC1 (centres unmarked) [Example I-156]
IC50 [1]: 33 nM

Cc1cc(COc2ccc(S(=O)(=O)CC(C=C3CCCN(CC(C)C)CC3)N(O)C=O)cc2)c2ccccc2n1 (centres unmarked) [Example I-140]
IC50 [1]: 8.2 nM

Cc1cc(COc2ccc(S(=O)(=O)CC(/C=C/C3(C)CCOCC3)N(O)C=O)cc2)c2ccccc2n1 (centres unmarked) [Example I-143]
IC50 [1]: 3.3 nM

Cc1cc(C)cc(COc2ccc(S(=O)(=O)CC(CC3CCC4(CC3)OCCO4)N(O)C=O)cc2)c1 (centres unmarked) [Example I-90]
IC50 [1]: 2100 nM

Cc1cccc(C(CS(=O)(=O)c2ccc(OCc3cc(C)nc4ccccc34)cc2)N(O)C=O)n1 (centres unmarked) [Example I-135]
IC50 [1]: 4 nM

Cc1cc(COc2ccc(S(=O)(=O)CC(CC3CCCN(C(=O)OC(C)(C)C)C3)N(O)C=O)cc2)c2ccccc2n1 (centres unmarked) [Example I-157]
IC50 [1]: 13 nM

CCC(CC)CN1CCCC(C(CS(=O)(=O)c2ccc(OCc3cc(C)nc4ccccc34)cc2)N(O)C=O)C1 (centres unmarked) [Example I-160]
IC50 [1]: 50 nM

CCN1CCCC(C(CS(=O)(=O)c2ccc(OCc3cc(C)nc4ccccc34)cc2)N(O)C=O)C1 (centres unmarked) [Example I-153]
IC50 [1]: 33 nM

CCN1CCCC(CC(CS(=O)(=O)c2ccc(OCc3cc(C)nc4ccccc34)cc2)N(O)C=O)C1 (centres unmarked) [Example I-158]
IC50 [1]: 26 nM

CCC(CC)C(=O)N1CCC(=CC(CS(=O)(=O)c2ccc(OCc3cc(C)nc4ccc(C)cc34)cc2)N(O)C=O)CC1 (centres unmarked) [Example I-173]
IC50 [1]: 5 nM

Cc1cc(COc2ccc(S(=O)(=O)CC(/C=C3\CCN(CC(C)C)CC3(C)C)N(O)C=O)cc2)c2ccccc2n1 (centres unmarked) [Example I-142]
IC50 [1]: 18 nM

O=CN(O)C(CC1CCC2(CC1)OCCO2)CS(=O)(=O)c1ccc(OCc2ccc3ccccc3n2)cc1 (centres unmarked) [Example I-87]
IC50 [1]: 5700 nM

Cc1cc(COc2ccc(S(=O)(=O)CC(CCC3=CCCC(O)C3)N(O)C=O)cc2)c2ccccc2n1 (centres unmarked) [Example I-146]
IC50 [1]: 9.4 nM

Cc1cc(COc2ccc(S(=O)(=O)CC(C=C3CCC(=NO)CC3)N(O)C=O)cc2)c2ccccc2n1 (centres unmarked) [Example I-6, N-Hydroxy-N-[1-(4-hydroxyiminocyclohexylidenemethyl)-2-{4-(2-methylquinolin-4-ylmethoxy)benzenesulfonyl}ethyl]formamide]
IC50 [2]: 50000 nM | IC50 [3]: 80000 nM | IC50 [4]: 45000 nM | IC50 [5]: 15000 nM | IC50 [6]: 3000 nM | IC50 [7]: 5000 nM

Cc1cc(COc2ccc(S(=O)(=O)CC(C3CCCN(CC(C)C)C3)N(O)C=O)cc2)c2ccccc2n1 (centres unmarked) [Example I-154]
IC50 [1]: 31 nM

COCc1cc(COc2ccc(S(=O)(=O)CC(CC3CCC(=O)CC3)N(O)C=O)cc2)cc(C)n1 (centres unmarked) [Example I-123]
IC50 [1]: 290 nM

CCC(CC)C(=O)N1CCCC(=CC(CS(=O)(=O)c2ccc(OCc3cc(C)nc4ccccc34)cc2)N(O)C=O)CC1 (centres unmarked) [Example I-139]
IC50 [1]: 8.2 nM

C=C1CCC(C(CS(=O)(=O)c2ccc(OCc3cc(C)nc4ccccc34)cc2)N(O)C=O)CC1 (centres unmarked) [Example I-1, N-hydroxy-N-[1-(4-methylenecyclohexyl)-2-{4-(2-methylquinolin-4-ylmethoxy)benzenesulfonyl}ethyl]formamide]
IC50 [2]: 40000 nM | IC50 [3]: 50000 nM | IC50 [5]: 7300 nM | IC50 [6]: 2000 nM | IC50 [7]: 6000 nM

COc1ccc(CCC(CS(=O)(=O)c2ccc(OCc3cc(C)nc4ccccc34)cc2)N(O)C=O)c(C)c1C (centres unmarked) [Example I-145]
IC50 [1]: 210 nM
